Tests used:
[1] = tested on: mutant p53 mRNA; assay: Reverse transcription PCR of p53 mRNA in H596 cells; format: cell-based, Human; details: H596, 15 μM PEITC; 2, 4, and 6 h
Method: Total RNA was extracted from the cells using the RNeasy kit (Qiagen). Reverse transcription PCR was performed using SuperScript One-Step RT-PCR kit (Invitrogen) according to the manufacturer's instructions. Primers for p53 were 5′-[…]-3′ (sense) and 3′-[…]-5′ (antisense). Primers for β-actin were 5′-[…]-3′ (sense) and 3′-[…]-5′ (antisense). β-Actin was used as an internal standard for RNA normalization.

[2] = biological target: T1, mutant p53 in MDA-MB-231 breast cancer cells (Homo sapiens, UniProt P04637, R280K); assay: Immunoblot of mutant p53 in MDA-MB-231 cells treated with ITCs; format: cell-based; details: MDA-MB-231, 10 μM ITCs, 24 h, compared with DMSO control
T1 construct: host or cells: MDA-MB-231
Text: Human H596, A549, HCT116, MDA-MB-231, MDA-MB-468, MCF-7, DU145, MCF-10A, SW480, and SCC-4 cells were obtained from ATCC (Manassas, Va.). H1299-175H cells were kindly provided by Dr. Maria Laura Avantaggiati (Georgetown University). Cells were maintained in DMEM or RPMI-1640 medium supplemented with 10% FBS (Hyclone). […] 2,2-Diphenylethyl ITC, 4-phenoxybenzyl ITC, 4-methoxybenzyl ITC, 4-chlorobenzyl ITC, Dα-methylbenzyl ITC, trityl ITC, and 3-phenylpropyl ITC were purchased from Trans World Chemicals (Rockville, Md.). Erucin and 4-phenylbutyl ITC were from LKT Laboratories, Inc. (St. Paul, Minn.). […] The p53 DO-1 and β-actin antibodies were purchased from Santa Cruz Biotechnology (Santa Cruz, Calif.), horseradish peroxidase-labeled goat antimouse secondary antibodies were purchased from GE-Healthcare (Pittsburgh, Pa.), and Bio-Rad Protein Assay was from Bio-Rad (Hercules, Calif.).
Whole cell lysates were prepared in lysis buffer (20 mM HEPES, pH 7.4, 2 mM EGTA, 50 mM β-glycerol phosphate, 1% Triton X-100, 10% glycerol, 1 mM DTT, 1 mM PMSF, […], 1 mM Na3-VO4, and 5 mM NaF). For immunoblot analysis, equal amounts of protein were resolved on 4-12% NuPAGE BisTris gels (Invitrogen) and transferred to PVDF membranes (Millipore). The membranes were blocked with 5% milk in TBST and were then probed with p53 (DO-1) or β-actin antibody. Proteins were detected using enhanced chemiluminescence (ECL) reagents (GE Healthcare).

[3] = tested on: A549 (WT p53) cell line; assay: Cell proliferation, A549; format: cell-based, Human
Method: Next, the effect of PEITC exposure on tumor growth of the tumor cell lines expressing mutant or the WT p53 protein was examined. […] This hypersensitivity to PEITC being mediated through mutant p53 was next examined. The effect of PEITC on mda-mb-231 cells depleted of mutant p53 by >90% was compared to non-specific (NS) siRNA transfected cells as a control (FIG. 9B). […] Further the effect of PEITC treatment on the level of mutant p53 protein at lower doses was analyzed by western blot analysis (FIG. 9D).

[4] = biological target: T2, p53R175H mutant protein in SK-BR-3 cells (Homo sapiens, UniProt P04637, R175H); assay: Immunofluorescence with conformation specific antibodies (PAB240, PAB1620); format: cell-based; details: SK-BR-3, PEITC 4 hrs vs DMSO
T2 construct: endogenous in cells; host or cells: SK-BR-3
Method: To determine if the induction of apoptosis is due to the restoration of WT conformation to the mutant p53 protein, immunoflourescence analysis was performed. SK-BR-3 cells expressing p53R175H mutant protein were treated with PEITC or DMSO as a control for 4 hrs. Cells were stained with the conformation specific antibody (PAB240) that recognizes the mutant p53 or antibody specific for the WT p53 protein (PAB1620).

With `S=C=NCCc1ccccc1` [PEITC, phenethyl isothiocyanate] as the compound, how does the “mutant p53 mRNA levels” value [1] read?
The value was “remained unchanged”.

And the “depletion of mutant p53 at equimolar concentrations” value [2]?
Its value is “approximately the same extent”.

And the “reduction in cell proliferation” value ([3]; 12 μM PEITC)?
The value was 25%.

What about the “reduction in cell proliferation” value ([3]; 14 μM PEITC) of the same compound?
The value was 45%.

And the “conformation of p53R175H mutant (PAB1620 staining)” value [4]?
The value was “induced conformation change”.

Reference: US20130158111A1, “Compositions and Methods for Depleting Mutant p53” (Georgetown University, priority 2011, published 2013)
